Measurements taken from ChEMBL document CHEMBL3399947, “Structure activity relationship of selective GABA uptake inhibitors” (Bioorg Med Chem, 2015).

Key:
Type in all cases: cell-based
[1] = molecular target: Sodium- and chloride-dependent GABA transporter 1 (Mus musculus, UniProt P31648); test: Inhibition of mouse mGAT1 expressed in HEK293 cells assessed as inhibition of [3H]GABA uptake after 3 mins incubation by TopCount microplate scintillation counting analysis
GABA transporter 4 = molecular target: T1, GABA transporter 4 (Mus musculus, UniProt P31650); test: Inhibition of mouse mGAT4 expressed in HEK293 cells assessed as inhibition of [3H]GABA uptake after 3 mins incubation by TopCount microplate scintillation counting analysis
T1 sequence (P31650 whole entry): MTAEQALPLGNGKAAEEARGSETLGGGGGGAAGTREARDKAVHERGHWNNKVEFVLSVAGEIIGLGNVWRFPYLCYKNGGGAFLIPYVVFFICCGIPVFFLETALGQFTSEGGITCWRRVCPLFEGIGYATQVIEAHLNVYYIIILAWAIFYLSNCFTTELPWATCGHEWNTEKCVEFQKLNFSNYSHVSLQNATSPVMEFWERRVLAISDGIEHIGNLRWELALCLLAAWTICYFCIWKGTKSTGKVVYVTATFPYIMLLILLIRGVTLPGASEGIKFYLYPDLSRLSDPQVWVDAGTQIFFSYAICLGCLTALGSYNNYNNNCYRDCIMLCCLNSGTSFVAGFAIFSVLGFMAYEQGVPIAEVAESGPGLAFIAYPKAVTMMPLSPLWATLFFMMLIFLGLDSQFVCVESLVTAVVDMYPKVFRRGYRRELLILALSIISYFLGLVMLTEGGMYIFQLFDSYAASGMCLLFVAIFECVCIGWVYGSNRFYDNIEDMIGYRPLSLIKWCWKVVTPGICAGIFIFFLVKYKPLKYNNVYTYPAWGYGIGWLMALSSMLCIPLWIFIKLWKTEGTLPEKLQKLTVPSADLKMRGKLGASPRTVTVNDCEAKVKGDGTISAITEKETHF

GABA transporter 2 = molecular target: T2, GABA transporter 2 (Mus musculus, UniProt P31651); test: Inhibition of mouse mGAT2 expressed in HEK293 cells assessed as inhibition of [3H]GABA uptake after 3 mins incubation by TopCount microplate scintillation counting analysis
T2 sequence (P31651 whole entry): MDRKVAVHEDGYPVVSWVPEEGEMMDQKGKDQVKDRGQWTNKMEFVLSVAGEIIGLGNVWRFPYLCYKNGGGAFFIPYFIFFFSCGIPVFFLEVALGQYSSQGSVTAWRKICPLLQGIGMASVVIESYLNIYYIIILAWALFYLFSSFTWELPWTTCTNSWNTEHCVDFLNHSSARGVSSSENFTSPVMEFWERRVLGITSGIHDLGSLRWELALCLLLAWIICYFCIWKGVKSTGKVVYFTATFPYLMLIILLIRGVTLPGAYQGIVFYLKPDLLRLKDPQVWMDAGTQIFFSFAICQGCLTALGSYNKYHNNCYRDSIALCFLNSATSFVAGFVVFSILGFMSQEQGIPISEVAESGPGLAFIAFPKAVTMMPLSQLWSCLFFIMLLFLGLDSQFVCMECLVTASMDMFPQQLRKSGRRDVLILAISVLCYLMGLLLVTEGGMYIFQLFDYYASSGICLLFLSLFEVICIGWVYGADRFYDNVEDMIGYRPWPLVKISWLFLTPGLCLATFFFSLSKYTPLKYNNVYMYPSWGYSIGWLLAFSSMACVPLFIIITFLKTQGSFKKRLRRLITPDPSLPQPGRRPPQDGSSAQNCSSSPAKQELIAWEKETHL

GABA transporter 3 = molecular target: T3, GABA transporter 3 (Mus musculus, UniProt P31649); test: Inhibition of mouse mGAT3 expressed in HEK293 cells assessed as inhibition of [3H]GABA uptake after 3 mins incubation by TopCount microplate scintillation counting analysis
T3 sequence (P31649 whole entry): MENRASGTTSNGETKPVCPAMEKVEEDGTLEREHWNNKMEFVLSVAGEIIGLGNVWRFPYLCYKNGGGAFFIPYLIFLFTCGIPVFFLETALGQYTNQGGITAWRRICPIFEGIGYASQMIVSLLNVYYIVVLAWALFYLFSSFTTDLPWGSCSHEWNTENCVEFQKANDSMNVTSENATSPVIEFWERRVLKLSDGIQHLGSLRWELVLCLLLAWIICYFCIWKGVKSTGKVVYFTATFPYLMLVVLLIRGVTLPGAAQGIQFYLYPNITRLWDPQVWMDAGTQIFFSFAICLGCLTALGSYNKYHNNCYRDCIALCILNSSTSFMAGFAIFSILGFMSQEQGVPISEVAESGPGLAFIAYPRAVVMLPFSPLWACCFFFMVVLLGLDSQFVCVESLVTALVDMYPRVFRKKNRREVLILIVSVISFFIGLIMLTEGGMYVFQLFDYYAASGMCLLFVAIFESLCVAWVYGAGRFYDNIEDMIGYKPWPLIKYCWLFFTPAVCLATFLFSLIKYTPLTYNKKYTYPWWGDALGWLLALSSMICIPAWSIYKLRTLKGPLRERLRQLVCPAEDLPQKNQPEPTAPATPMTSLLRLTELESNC

| Structure (SMILES) | IC50 ([1]; read-out: IC50) [µM] | IC50 (GABA transporter 4; read-out: IC50) [µM] | IC50 (GABA transporter 2; read-out: IC50) [µM] | IC50 (GABA transporter 3; read-out: IC50) [µM] | IC50 (GABA transporter 4; hek293, read-out: IC50) [µM] | IC50 (GABA transporter 3; hek293, read-out: IC50) [µM] | IC50 (GABA transporter 4; read-out: pIC50 (converted)) [µM] | IC50 (GABA transporter 3; read-out: pIC50 (converted)) [µM] | IC50 ([1]; read-out: pIC50 (converted)) [µM] | IC50 (GABA transporter 2; read-out: pIC50 (converted)) [µM] |
| --- | --- | --- | --- | --- | --- | --- | --- | --- | --- | --- |
| Cc1ccsc1C(=CCCN(C)[C@@H]1CCCC[C@@H]1C(=O)O)c1sccc1C | 917 | 380 | 94.9 | 328 |  |  |  |  |  |  |
| Cc1ccsc1C(=CCCN(C)[C@H]1CCCC[C@@H]1C(=O)O)c1sccc1C | 264 | 263 | 62.2 | 478 |  |  |  |  |  |  |
| Cc1ccsc1C(=CCCN(C)[C@@H]1CCCC[C@H]1C(=O)O)c1sccc1C | 194 | 551 | 133 | 633 |  |  |  |  |  |  |
| CN(CCON=C(c1ccccc1)c1ccccc1)[C@@H]1CCCC[C@H]1C(=O)O | > 2000 |  | 880 |  | > 2000 | > 2000 |  |  |  |  |
| CN(CCC=C1c2ccccc2CCc2ccccc21)[C@@H]1CCCC[C@H]1C(=O)O | 614 | 883 | 119 | 966 |  |  |  |  |  |  |
| CN(CCC=C1c2ccccc2CCc2ccccc21)[C@H]1CCCC[C@@H]1C(=O)O | 962 | 715 | 139 | 1240 |  |  | 724 |  |  |  |
| CN(CCOC(c1ccc(C(F)(F)F)cc1)c1ccc(C(F)(F)F)cc1)[C@@H]1CCCC[C@H]1C(=O)O | 421 | 299 | 97.1 | 393 |  |  |  |  |  |  |
| Cc1ccsc1C(=CCCN(C)[C@H]1CCCC[C@H]1C(=O)O)c1sccc1C | 562 | 289 | 21.6 | 941 |  |  |  |  |  |  |
| CN(CCON=C(c1ccccc1)c1ccccc1)[C@H]1CCCC[C@H]1C(=O)O | > 1000 | > 1000 | 417 | > 1000 |  |  |  |  |  |  |
| CN(CCON=C(c1ccccc1)c1ccccc1)[C@@H]1CCCC[C@@H]1C(=O)O | > 1000 | > 1000 | 443 | > 1000 |  |  |  |  |  |  |
| CN(CCC=C1c2ccccc2CCc2ccccc21)[C@H]1CCCC[C@H]1C(=O)O | 1360 | 649 | 147 | 1840 |  |  |  | 1450 |  |  |
| CN(CCC=C1c2ccccc2CCc2ccccc21)[C@@H]1CCCC[C@@H]1C(=O)O | 1820 | 1450 | 88.9 | 1030 |  |  |  |  |  |  |
| CN(CCOC(c1ccc(C(F)(F)F)cc1)c1ccc(C(F)(F)F)cc1)[C@H]1CCCC[C@H]1C(=O)O | 631 | 303 | 90 | 392 |  |  |  |  |  |  |
| CN(CCOC(c1ccc(C(F)(F)F)cc1)c1ccc(C(F)(F)F)cc1)[C@@H]1CCCC[C@@H]1C(=O)O | 445 | 539 | 63.1 | 336 |  |  |  |  |  |  |
| CN(CCON=C(c1ccccc1)c1ccccc1)C1CCCC=C1C(=O)O (stereo not given) | > 2000 | > 2000 | 814 | > 2000 |  |  |  |  |  |  |
| CN(CCC=C1c2ccccc2CCc2ccccc21)C1CCCC=C1C(=O)O (stereo not given) | 425 | 821 | 81 | 687 |  |  |  |  | 537 |  |
| CN(CCOC(c1ccc(C(F)(F)F)cc1)c1ccc(C(F)(F)F)cc1)C1CCCC=C1C(=O)O (stereo not given) | > 1000 | > 1000 | 107 | > 1000 |  |  |  |  |  |  |

| Structure (SMILES) | IC50 ([1]; read-out: IC50) [µM] | IC50 (GABA transporter 4; read-out: IC50) [µM] | IC50 (GABA transporter 2; read-out: IC50) [µM] | IC50 (GABA transporter 3; read-out: IC50) [µM] | IC50 (GABA transporter 4; hek293, read-out: IC50) [µM] | IC50 (GABA transporter 3; hek293, read-out: IC50) [µM] | IC50 (GABA transporter 4; read-out: pIC50 (converted)) [µM] | IC50 (GABA transporter 3; read-out: pIC50 (converted)) [µM] | IC50 ([1]; read-out: pIC50 (converted)) [µM] | IC50 (GABA transporter 2; read-out: pIC50 (converted)) [µM] |
| --- | --- | --- | --- | --- | --- | --- | --- | --- | --- | --- |
| Cc1ccsc1C(=CCCN(C)[C@H]1CCCC[C@H]1CO)c1sccc1C | 215 | 146 | 27 | 168 |  |  |  |  |  |  |
| Cc1ccsc1C(=CCCN(C)[C@@H]1CCCC[C@@H]1CO)c1sccc1C | 239 | 178 | 34.8 | 133 |  |  |  |  |  |  |
| CN(CCON=C(c1ccccc1)c1ccccc1)[C@H]1CCCC[C@H]1CO | 415 | 136 | 49.1 | 295 |  |  |  |  |  |  |
| CN(CCON=C(c1ccccc1)c1ccccc1)[C@@H]1CCCC[C@@H]1CO | 426 | 341 | 76.6 | 349 |  |  |  |  |  | 77.6 |
| CN(CCC=C1c2ccccc2CCc2ccccc21)[C@H]1CCCC[C@H]1CO | 191 | 126 | 28.3 | 148 |  |  |  |  |  |  |
| CN(CCC=C1c2ccccc2CCc2ccccc21)[C@@H]1CCCC[C@H]1C(=O)O (racemic) | 972 | 844 | 125 | 985 |  |  |  |  |  |  |
| CN(CCOC(c1ccc(C(F)(F)F)cc1)c1ccc(C(F)(F)F)cc1)[C@@H]1CCCC[C@H]1C(=O)O (racemic) | 426 | 392 | 138 | 433 |  |  |  |  |  |  |
| Cc1ccsc1C(=CCCN1CCNC(C(=O)O)C1)c1sccc1C (racemic) | 95.6 | > 1000 | > 1000 | > 1000 |  |  |  |  |  |  |
| O=C(O)C1CN(CCON=C(c2ccccc2)c2ccccc2)CCN1 (racemic) | 216 | > 1000 | > 1000 | > 1000 |  |  |  |  |  |  |
| O=C(O)C1CN(CCOC(c2ccc(C(F)(F)F)cc2)c2ccc(C(F)(F)F)cc2)CCN1 (racemic) | 83 | 1760 | 401 | > 1000 |  |  |  |  |  |  |
| CCN1CCNC(C(=O)O)C1 (racemic) | > 1000 | > 1000 | > 1000 | > 1000 |  |  |  |  |  |  |
| Cc1ccsc1C(=CCCN1CCNCC1C(=O)O)c1sccc1C (racemic) | 195 | 883 | 1400 | 1660 |  |  |  |  |  |  |
| O=C(O)C1CNCCN1CCON=C(c1ccccc1)c1ccccc1 (racemic) | > 1000 | > 1000 | > 1000 | > 1000 |  |  |  |  |  |  |
| CCN1CCNCC1C(=O)O (racemic) | > 1000 | > 1000 | > 1000 | > 1000 |  |  |  |  |  |  |
| Cc1ccsc1C(=CCCN(C)C1CCCC=C1C(=O)O)c1sccc1C (stereo in doubt; (E1)-6a) | 170 | 468 | 76.7 | 765 |  |  |  |  |  |  |
| Cc1ccsc1C(=CCCN(C)C1CCCC=C1C(=O)O)c1sccc1C (stereo in doubt; (E2)-6a) | 403 | 413 | 67 | 584 |  |  |  |  |  |  |
| CNCCC=C1c2ccccc2CCc2ccccc21 [NORTRIPTYLINE] | 389 | 249 | 171 | 270 |  |  |  |  |  |  |
